Data on one compound can be found in ChEMBL document CHEMBL5236643, “Discovery and characterization of orally bioavailable 4-chloro-6-fluoroisophthalamides as covalent PPARG inverse-agonists” (Bioorg Med Chem, 2023).

The nature of series [1]: Antiproliferative activity against human UM-UC-9 assessed as inhibition of cell proliferation by measuring maximum efficacy after 7 days by IncuCyte live-cell imaging assay. The format is functional. To be noted: UM-UC-9, 168 h, time 7 day.
A short description of series [2]: AUClast in Wistar rat at 1 mg/kg,iv measured upto 24 hrs by HPLC-MS/MS analysis. On the set-up: time < 24 hrs, dose 1 mg/kg, route iv. It is filed as ADME, organism-based. Particulars: in vivo.
Series [3] is described as follows: Microsomal stability in human liver microsomes assessed as intrinsic clearance at 1 uM measured upto 60 mins in presence of NADPH by HPLC-MS/MS analysis. To be noted: read-out: CLH (converted). The format is ADME, Microsome.
Series [4] concerns the target T1, Peroxisome proliferator-activated receptor gamma (Mus musculus) (UniProt P37238).
T1 sequence (whole entry): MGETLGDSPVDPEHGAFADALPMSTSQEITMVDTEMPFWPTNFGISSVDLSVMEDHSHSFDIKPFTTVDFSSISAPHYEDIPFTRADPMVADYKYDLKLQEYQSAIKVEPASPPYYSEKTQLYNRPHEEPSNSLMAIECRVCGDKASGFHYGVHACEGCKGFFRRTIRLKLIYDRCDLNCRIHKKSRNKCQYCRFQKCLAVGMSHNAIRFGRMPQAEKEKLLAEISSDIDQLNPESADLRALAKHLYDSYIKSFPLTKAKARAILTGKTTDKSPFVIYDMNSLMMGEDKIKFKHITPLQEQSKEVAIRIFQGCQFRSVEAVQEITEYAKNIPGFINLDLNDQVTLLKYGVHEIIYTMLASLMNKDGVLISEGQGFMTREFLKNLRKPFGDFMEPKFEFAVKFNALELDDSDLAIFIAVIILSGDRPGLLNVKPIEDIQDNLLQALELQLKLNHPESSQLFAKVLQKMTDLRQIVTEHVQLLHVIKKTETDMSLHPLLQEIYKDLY
The series can be described thus: Inverse agonist activity at PPARgamma in NMRI-nu/nu mouse assessed as reduction in Fabp4 mRNA expression in adipose tissue at 100 mg/kg for 3 days and measured 6 hrs last dose by qPCR analysis. It is filed as organism-based. Particulars: time 3.0 day. (Quantitative PCR measures a nucleic acid by following its amplification.)

Series [5] can be described thus: Volume of distribution at steady state in Wistar rat at 1 mg/kg,iv measured upto 24 hrs by HPLC-MS/MS analysis. It is filed as ADME, organism-based. To be noted: in vivo, read-out: Vdss.
Series [6] is described as follows: Stability of compound in cysteine at pH 7.4 assessed as parent compound remaining at 10 mM and measured after 24 hrs by HPLC-UV analysis. It is filed as physicochemical. Particulars: cysteine solution, read-out: Stability.
Series [7] is described as follows: Stability of compound in cysteine at pH 7.4 assessed as parent compound remaining at 10 mM and measured after 1 hrs by HPLC-UV analysis. It is filed as physicochemical. Particulars: cysteine solution, read-out: Stability.
A short description of series [8]: Stability in rat hepatocytes assessed as intrinsic clearance at 1 uM incubated for 1 hr by HPLC-MS/MS analysis. It is filed as ADME, cell-based, Hepatocyte. To be noted: read-out: CLH (converted).
A short description of series [9]: Tmax in NMRI-nu/nu mouse at 100 mg/kg,po measured upto 24 hrs by HPLC-MS/MS analysis. To be noted: in vivo. The format is ADME, organism-based.
The nature of series [10]: AUClast in NMRI-nu/nu mouse at 100 mg/kg,po measured upto 24 hrs by HPLC-MS/MS analysis. The format is ADME, organism-based. To be noted: in vivo. Details: time < 24 hrs, dose 100 mg/kg, route po.
The nature of series [11]: Stability of compound in GSH at pH 7.4 assessed as parent compound remaining at 10 mM and measured after 1 hrs by HPLC-UV analysis. The format is physicochemical. Particulars: GSH solution, read-out: Stability.
Series [12] is described as follows: Stability of compound in GSH at pH 7.4 assessed as parent compound remaining at 10 mM and measured after 2 hrs by HPLC-UV analysis. The format is physicochemical. To be noted: GSH solution, read-out: Stability.
The nature of series [13]: Thermodynamic solubility of compound at pH 6.5 PBS buffer. The format is physicochemical. Particulars: read-out: Therm_solubility.
A short description of series [14]: Clearance in Wistar rat at 1 mg/kg,iv measured upto 24 hrs by HPLC-MS/MS analysis. It is filed as ADME, organism-based. To be noted: in vivo.
Series [15] in a line: Stability of compound in GSH at pH 7.4 assessed as parent compound remaining at 10 mM and measured after 4 hrs by HPLC-UV analysis. The format is physicochemical. To be noted: GSH solution, read-out: Stability.
Series [16] is described as follows: Half life in Wistar rat at 1 mg/kg,iv measured upto 24 hrs by HPLC-MS/MS analysis. It is filed as ADME, organism-based. Particulars: in vivo.
A short description of series [17]: Apparent permeability across basolateral to apical side in human Caco-2 cells at 2 uM incubated for 2 hrs by LC-MS/MS analysis. The format is ADME, cell-based. Background: Caco-2 cells form a polarised layer with tight junctions and transporters.
For series [18], the target named is T2, Nuclear receptor subfamily 1 group I member 2 (Homo sapiens, UniProt O75469).
T2 sequence (O75469 whole entry): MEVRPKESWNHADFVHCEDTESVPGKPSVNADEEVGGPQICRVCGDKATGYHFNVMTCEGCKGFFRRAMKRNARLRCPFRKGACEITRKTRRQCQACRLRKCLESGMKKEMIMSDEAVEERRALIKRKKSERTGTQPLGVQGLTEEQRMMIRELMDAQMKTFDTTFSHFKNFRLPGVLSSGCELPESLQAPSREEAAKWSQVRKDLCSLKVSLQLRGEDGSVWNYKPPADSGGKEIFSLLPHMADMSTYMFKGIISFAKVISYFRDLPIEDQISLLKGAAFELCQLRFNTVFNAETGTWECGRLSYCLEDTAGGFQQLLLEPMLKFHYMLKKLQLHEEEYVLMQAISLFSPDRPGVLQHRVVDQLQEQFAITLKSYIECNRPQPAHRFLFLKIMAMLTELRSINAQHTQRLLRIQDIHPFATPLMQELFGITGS
Kind of series: Transactivation of human PXR in human HepG2 cells co-expressing luciferase gene under control of CYP3A4 promoter assessed as increase in luciferase activity incubated for 24 hrs by luminescence based analysis. The format is ADME, cell-based.

Series [19] is described as follows: Stability of compound in cysteine at pH 7.4 assessed as parent compound remaining at 10 mM and measured after 2 hrs by HPLC-UV analysis. It is filed as physicochemical. Particulars: cysteine solution, read-out: Stability.
A short description of series [20]: Stability of compound in GSH at pH 7.4 assessed as parent compound remaining at 10 mM and measured after 24 hrs by HPLC-UV analysis. It is filed as physicochemical. Particulars: GSH solution, read-out: Stability.
The target of series [21] is T1, Peroxisome proliferator-activated receptor gamma (Mus musculus). Kind of series: Inverse agonist activity at PPARgamma in NMRI-nu/nu mouse assessed as decrease in Acaab1 mRNA expression in adipose tissue at 100 mg/kg for 3 days and measured upto 15 hrs last dose by qPCR analysis. Particulars: filed as inverse agonist, time 3.0 day. It is filed as organism-based.

Series [22] can be described thus: Cmax in NMRI-nu/nu mouse at 100 mg/kg,po measured upto 24 hrs by HPLC-MS/MS analysis. It is filed as ADME, organism-based. Details: time < 24 hrs, dose 100 mg/kg, route po. Particulars: in vivo.
The nature of series [23]: Antiproliferative activity against human UM-UC-9 assessed as inhibition of cell proliferation measured after 7 days by IncuCyte live-cell imaging assay. To be noted: UM-UC-9, 168 h.
Series [24] can be described thus: Stability of compound in cysteine at pH 7.4 assessed as parent compound remaining at 10 mM and measured after 4 hrs by HPLC-UV analysis. The format is physicochemical. To be noted: cysteine solution, read-out: Stability.

Converted amounts (≈) assume the structure as drawn. The source made the active and inactive calls.

In the case of `CC(C)(O)c1ccc(NC(=O)c2cc(C(=O)NCc3ccc(F)c(F)c3)c(F)cc2Cl)cc1`, the Emax in series [1] was 71%. This compound registered an AUClast in [2] of 0.18 kg·h/L. For the same compound, the CLint scaled at 1 µM in series [3] is 15.5 mL/min/kg; in [8], 29.3 mL/min/kg. Further, the result in series [4] was inactive. For the same compound, the Vd in [5] worked out at 1.8 L/kg. The remaining at 24 h, 10000 µM in [6] and in series [20] was 100% throughout. The remaining at 1 h, 10000 µM in series [7] and in series [11] was 100% each time. The Tmax (usually the time from dosing to the highest level) in [9] is 60 min. In series [10], the AUC(0-t) (commonly the area under the concentration-time curve up to a stated or last time point) at 24 h came to 1900 ng·h/mL. For the same compound, the remaining at 2 h, 10000 µM in series [12] and in series [19] was 100% in each case. In addition, in series [13], the solubility thermodynamic stood at 6.55 µg/mL (≈ 13.7 µM). In addition, in series [14], the clearance (in general, a measure of how efficiently the substance is removed, as volume per time) was 93.3 mL/min/kg. Also, the remaining at 4 h, 10000 µM in [15] and in series [24] was 100% throughout. Further, in series [16], the half-life (as a rule, the time needed for the level to fall by half in the phase considered) is 11.4 min. Besides, in [17], the Papp B→A (as a rule, how fast a substance crosses the layer from the basolateral side) at 2 h, 2 µM was 17.1 ×10⁻⁶ cm/s. The IC50 (commonly the concentration that inhibits the measured activity by half) in [18] is over 49800 nM; in series [23], 40.4 nM. For the same compound, the result in [21] was Active. Besides, in series [22], the peak level (Cmax) was 3.2 nM.
